Numbers after ± are expanded uncertainties.

For the first data set the following is noted: Crystal; DTA.
As to `CCn1cc[n+](C)c1.[Cl-]` [1-ethyl-3-methylimidazolium chloride], the Normal melting temperature was 84 ± 2 °C.
For the molecule `CC(=O)[O-].CCCCCCCCCCCCCC[P+](CCCCCC)(CCCCCC)CCCCCC` [trihexyl(tetradecyl)phosphonium acetate], the Normal melting temperature is -67 ± 2 °C.
Regarding `CCCCCCCCCCCCCC[P+](CCCCCC)(CCCCCC)CCCCCC.[Cl-]` [trihexyl(tetradecyl)phosphonium chloride], the Normal melting temperature is -66 ± 2 °C.

The same data set, now with this note: Glass; DSC.
Turning to `CC(=O)[O-].CCCCn1cc[n+](C)c1` [1-butyl-3-methylimidazolium acetate], the Glass transition temperature was -63 ± 2 °C.
Still for that read-out and setting: with `CCCCn1cc[n+](C)c1.[Cl-]` [1-butyl-3-methylimidazolium chloride] the figure was -52 ± 2 °C; with `CC(=O)[O-].CCn1cc[n+](C)c1` [1-ethyl-3-methylimidazolium acetate], -71 ± 2 °C.
The same measure, in the same setting: with `CCCCCCn1cc[n+](C)c1.[Cl-]` [1-hexyl-3-methylimidazolium chloride] the figure was -65 ± 2 °C; with `CCCCCCCC[n+]1ccn(C)c1.[Cl-]` [1-methyl-3-octylimidazolium chloride], -74 ± 2 °C.

The record behind these values is the NIST ThermoML archive (doi:10.1016/j.jct.2016.05.023).
